Laboratory results as given in patent publication US20130015204A1, “SINGLE-USE CONTAINERS AND USES THEREOF” (priority 2009, published 2013).
Entries after “also recorded” stand apart in the source; their conditions may differ.

Columns and labels:
[1] = Long term storage stability studies: HPLC, solutions stored at RT and 4° C. for up to 4 months; conditions: for Vitamin degradation, Storage 4° C. / Vitamin degradation, Storage RT: greatest percentage change over the 4 month testing period, † non-significant, * significant, ‡ transient at 2 weeks; for Comment (long term storage stability): storage at RT and 4° C. for up to 4 months; for Long term storage stability of vitamin solution: stored at RT or 4° C., 4 month period
Experimental: Heat was applied by different methods, including placing the solution in a test tube in a bath of hot water (80° C. or 100° C.) for 15 minutes, or by mixing a concentrated solution with hot water or hot coffee (80° C. or 100° C. for both) for an equivalent time. Long term stability studies were carried out by storing individual vitamin solutions at room temperature and at 4° C. for up to 4 months and sampling these solutions at various intervals. Degradation was assessed by the change in peak area of the HPLC peak specific to each particular compound.
Vitamin solutions were prepared as for the Heat Stability Studies.
Replicate aliquots of these solutions were placed in four 15 mL Falcon tubes. Two of these tubes were stored on a shelf at room temperature (RT) in the laboratory and two in the cold room (4° C.).
At 0, 0.5, 1, 1.5, 2, 3.5, and 4 months, samples were taken from each vial for
HPLC analysis. The high concentration vitamin samples (vitamins BI, B3, B5, and B6) were diluted to 1:250 with Milli-Q water before injection and the low concentration vitamin samples (vitamins B2, B7, B9, and B12) were injected undiluted.
Samples from each of the duplicate solutions described above were injected onto the HPLC in duplicate. HPLC conditions were as described above.
Duplicate injections of the two samples were made and the mean of the four results was reported.
(§1) The percentage change in individual vitamin concentrations relative to the control sample was calculated as: 100×(Atest−Acontrol)/Acontrol, where Atest and Acontrol are peak area ratios (analyte/intemal standard) for the test and control solutions respectively.
For the heat stability studies, statistical analysis was performed by Students t-test. For the storage stability studies, statistical analysis was performed by univariate ANOVA (General Linear Model). All statistical analyses were performed with SPSS 16.

[2] = water; cited from earlier work
[3] = Heat stability studies: HPLC peak area change after heating, hot water or hot coffee; assay type: physicochemical; conditions: for Effect of heating solutions on vitamin concentration: heating to either 80° C. or 100° C. for 15 minutes; for % Deviation: 15 minutes, vs control
Experimental: Vitamins were divided into two groups, depending on their solubility. “High concentration” vitamins were sufficiently soluble to be detected by the. HPLC analysis after 1/250 dilution. “Low concentration” vitamins were not sufficiently soluble and could not be detected after 1/250 dilution and therefore a different procedure was adopted for these compounds as described below.
High concentration vitamin (B1, B3, B5, B6) solutions
Solutions were prepared immediately before use in duplicate, using four different methods, described below: a. Dilute 1 mL of each standard solution to 250 mL with Milli-Q water at room temperature (control sample) […]
b. […] Then take a 1 mL sample from each tube and dilute to 250 mL with Milli-Q water at room temperature. c. Dilute 1 mL of each solution to 250 mL with hot water (80° C. or 100° C.). Leave for 15 minutes, then take a sample and cool immediately to room temperature. d. Dilute 1 mL of each solution to 250 mL with hot coffee (80° C. or 100° C.). Leave for 15 minutes, then take a sample and cool immediately to room temperature.
Low Concentration Vitamin (B2, B7, B9, B12) Solutions
Standard solutions were freshly prepared with Milli-Q water as described above. The test solutions below were then immediately prepared in duplicate: a. Use undiluted (control sample)
HPLC conditions were as described above.
as §1
All statistical analyses were performed with SPSS 16.

With Nc1nc2ncc(CNc3ccc(C(=O)N[C@@H](CCC(=O)O)C(=O)O)cc3)nc2c(=O)[nH]1 [Vitamin B9, folic acid] the “Time to achieve significant falls at 4° C.” value ([1]; aqueous solution stored at 4° C., up to 4 months, — = no significant fall) was 2 weeks, the “Time to achieve significant falls at RT” value ([1]; aqueous solution stored at RT, up to 4 months, — = no significant fall) was 2 weeks and the “Vitamin degradation, Storage 4° C.” value [1] was −13.7% *. For the same compound, the “Vitamin degradation, Storage RT” value [1] was −100.0% *, the “Comment: At 4° C., significant change only at” value ([1]; storage at 4° C.) was 2 weeks and the “Further fall in levels at 1 month” value ([1]; storage at 4° C., 1 month, beyond the fall at 2 weeks) was 5.7%. The “Degradation after 2 weeks at 4° C.” value ([1]; storage at 4° C., 2 weeks) was 8.0%, the “Maximum degradation on storage at 4° C.” value ([1]; storage at 4° C., 4 months) was 13.7% and the “Comment (long term storage stability)” value [1] was “At RT, undetectable”. The “Degradation after 2 weeks at RT” value ([1]; storage at RT, 2 weeks) was 10.0%, the “Level on storage at RT after the 2 week sample” value ([1]; storage at RT, sampling times from 1 month to 4 months) was “undetectable; also recorded: complete elimination” and the “Long term storage stability of vitamin solution” value [1] was “varying levels of degradation; also recorded: Significant degradation”. For the same compound, the Aq. solubility [2] was 0.0016 mg/mL, the “Effect of heating solutions on vitamin concentration” value [3] was “Statistically significant reductions” and the “% Deviation” value ([3]; low concentration vitamin solution, undiluted, heated to 80° C.) was −1.92%. For the same compound, the “% Deviation” value ([3]; low concentration vitamin solution, undiluted, heated to 100° C.) was −2.26%.
In the case of Cc1ncc(C[n+]2csc(CCO)c2C)c(N)n1 [Vitamin B1, Thiamine], the “Vitamin degradation, Storage 4° C.” value [1] is reported as “† −2.8%”, the “Vitamin degradation, Storage RT” value [1] is reported as “† −2.4%” and the “Comment (long term storage stability)” value [1] is reported as “Stable for 4 months”. The “Long term storage stability of vitamin solution” value [1] was “stable; also recorded: no statistically significant degradation”, the Aq. solubility [2] was 500 mg/mL and the “Effect of dilution with hot water and coffee on vitamin concentration” value ([3]; dilution with hot water or hot coffee, 80° C. or 100° C.) was “unaffected”. The “Effect of heating solutions on vitamin concentration” value [3] was “not affected”, the “% Deviation” value ([3]; high concentration vitamin solution, matrix coffee: diluted 1/250 with hot coffee 80° C.) was 0.46% and the “% Deviation” value ([3]; high concentration vitamin solution, matrix coffee: diluted 1/250 with hot coffee 100° C.) was 0.58%. The “% Deviation” value ([3]; high concentration vitamin solution, matrix heated: tube in hot water 80° C.) was 0.33%, the “% Deviation” value ([3]; high concentration vitamin solution, matrix heated: tube in hot water 100° C.) was 0.22% and the “% Deviation” value ([3]; high concentration vitamin solution, matrix hot water: diluted 1/250 with hot water 80° C.) was −0.04%. For the same compound, the “% Deviation” value ([3]; high concentration vitamin solution, matrix hot water: diluted 1/250 with hot water 100° C.) was −0.26%.
